Reference: patent publication US6541463B1, “Inhibitors of type 5 and type 3 17β-hydroxysteroid dehydrogenase and methods for their use” (Endorecherche, Inc., priority 1998, dated 2003)

Experiments:
[1] = target: T1, human type 2 17β-hydroxysteroid dehydrogenase (Homo sapiens, UniProt P37059); experiment: Enzymatic assay for type 2 17β-HSD; type: biochemical; conditions: for inhibition: read-out: Inhibition Type 2 17β-HSD Activity [% Inh. at 3 · 10^−8M]; for IC50: read-out: Inhibition Type 2 17β-HSD Activity IC50
T1 construct: expressed in transfected cells; host or cells: 293 cells, transient transfection; microsomal fraction (100 000×g pellet)
T1 sequence (P37059 1-387): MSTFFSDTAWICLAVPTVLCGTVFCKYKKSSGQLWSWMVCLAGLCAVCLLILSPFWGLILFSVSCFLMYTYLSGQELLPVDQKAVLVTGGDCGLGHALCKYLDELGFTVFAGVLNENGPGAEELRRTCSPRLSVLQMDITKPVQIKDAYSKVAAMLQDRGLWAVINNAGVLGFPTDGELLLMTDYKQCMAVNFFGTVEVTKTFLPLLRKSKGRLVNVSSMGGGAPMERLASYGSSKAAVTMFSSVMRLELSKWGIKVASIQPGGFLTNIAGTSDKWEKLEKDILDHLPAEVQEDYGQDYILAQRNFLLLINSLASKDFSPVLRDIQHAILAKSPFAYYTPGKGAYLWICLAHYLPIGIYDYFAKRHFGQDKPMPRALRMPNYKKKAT
In short: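 Enzymes from transiently transfected 293 cells (cytosol for type 1, microsomes for types 2 and 3 17β-HSD) were incubated 1 h at 37° C in pH 7.4 phosphate/20% glycerol with 2 mM NADPH or NAD+ and 0.1 μM 14C-substrate (estrone, 4-dione, or DHT for 3α-HSD); metabolites quantified by TLC; preliminary % inhibition at 3.10^−6M.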

[2] = system: Shionogi mouse mammary carcinoma cells; experiment: Androgenic activity: stimulation of proliferation of Shionogi cells; type: cell-based; conditions: for Androgenic Activity Shionogi, Basal E^−6 / Androgenic Activity Shionogi, Basal E^−7: Table 4′
In short: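 Shionogi mouse mammary carcinoma cells, at 20 000 cells/well in medium with 5% charcoal-stripped FCS, were grown 10–12 days with the inhibitor at 10^−7 M and 10^−6 M in triplicate. Medium was changed every 3–4 days. Proliferation was read by Coulter counting and given as % stimulation.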

[3] = Table 4′, bracketed values, 3 · 10^−8M

Structure (SMILES)	inhibition [1, 3] [%]	Androgenic Activity Shionogi, Basal E^−6 [2] [%]	Androgenic Activity Shionogi, Basal E^−7 [2] [%]	IC50 ([1]; Table 4′) [µM]	Inhibition Type 2 17β-HSD Activity [% Inh. at 3 · 10^−8M] [1, 3]	Inhibition Type 2 17β-HSD Activity [% Inh. at 3.10^−5 M] ([1]; Table 5 column 5, bracketed values, 3.10^−5 M)	Androgenic Activity Shlonogl, Basal E^−6 ([2]; Table 5 column 9, E^−6) [%]	Androgenic Activity Shlonogl, Basal E^−7 ([2]; Table 5 column 9, E^−7) [%]
CC12CCC3c4ccc(F)cc4CCC3C1CCC21CCCC(=O)O1 (stereo not drawn) [EM-1170-CS]	84	−27	12					
CCS(=O)(=O)Oc1ccc2c(c1)CCC1C2CCC2(C)C1CCC21CCC(C)(C)C(=O)O1 (stereo not drawn) [EM-1364-CS]	73	−16	0					
CN(C)CCOc1ccc2c(c1)CCC1C2CCC2(C)C1CCC21CCC(C)(C)C(=O)O1 (stereo not drawn) [EM-1389-CS]		−41	0	> 10				
CC1(C)CCC2(CCC3C4CCc5c(cc(Cl)c(O)c5Cl)C4CCC32C)OC1=O (stereo not drawn) [EM-1391-CS]		−13	0	> 10				
CC1(C)CCC2(CCC3C4CCc5cc(C(=O)OCc6ccccc6)ccc5C4CCC32C)OC1=O (stereo not drawn) [EM-1398]		−10	13		[64] %			
COCCOc1cc2c(cc1F)C1CCC3(C)C(CCC34CCC(C)(C)C(=O)O4)C1CC2 (stereo not drawn) [EM-1393-CS]		−10	88	> 10				
CN1C(=O)C=C[C@]2(C)C3CC[C@@]4(C)C(CC[C@@]45CCCC(=O)O5)C3CCC12 (stereo partly drawn) [EM-1122-CS]						[90] %	−11	0
